Data on 21 molecules can be found in ChEMBL document CHEMBL3046022, “Synthesis and pharmacological screening of some novel chalconyl derivatives of substituted phenyl semicarbazide” (2011).

The structures appear in SMILES notation.

Format in all cases: functional
What all share (conditions): route intraperitoneal

The subject of assay [1] is Mus musculus. Nature of the assay: Anticonvulsant activity in Mus musculus albino (mouse) assessed as protection against maximal electroshock-induced seizures at 30 mg/kg, ip administered 30 min prior to electro shock-challenge measured for 2 min relative to control.
The test system of assay [2] is Mus musculus. As to the kind of experiment: Anticonvulsant activity in Mus musculus albino (mouse) assessed as protection against maximal electroshock-induced seizures at 30 mg/kg, ip administered 30 min prior to electro shock-challenge measured for 2 min relative to phenytoin.
Assay [3] concerns Mus musculus. Nature of the assay: Anticonvulsant activity in Mus musculus albino (mouse) assessed as protection against maximal electroshock-induced seizures at 25 mg/kg, ip administered 30 min prior to electro shock-challenge measured for 2 min relative to control.

Consider `COc1ccc(/C=C/C(=N\NC(=O)Nc2ccc(Br)cc2)c2ccccc2O)cc1`, for which the Activity in the assay with Mus musculus [1] is 51.44%; in the assay with Mus musculus [2] it was 64.34%.
The matching figures for `CN(C)c1ccc(/C=C/C(=N\NC(=O)Nc2ccc(Br)cc2)c2ccccc2O)cc1`: 30.95% and 38.71%.
The matching figures for `O=C(N/N=C(\C=C\c1ccccc1O)c1ccc(O)cc1O)Nc1ccc(Br)cc1`: 72.93% and 91.21%.
On to `CN(C)c1ccc(/C=C/C(=N\NC(=O)Nc2ccc(Br)cc2)c2ccc(O)cc2O)cc1`, for which the Activity in the assay on Mus musculus [1] was determined as 24.27%; in the assay with Mus musculus [2], 30.35%.
Turning to `O=C(N/N=C(\C=C\c1ccccc1O)c1ccccc1O)Nc1ccc(Br)cc1`, the Activity in the assay with Mus musculus [1] came out at 64.81%; in the assay on Mus musculus [2], 81.06%.
For `O=C(N/N=C(\C=C\c1ccccc1O)c1cc(O)ccc1O)Nc1ccc(Br)cc1`, in that order: 75.16% and 94%.
For `O=C(N/N=C(\C=C\c1ccc(O)cc1)c1cc(O)ccc1O)Nc1ccc(Br)cc1`, in that order: 76.61% and 95.82%.
As for `COc1ccc(/C=C/C(=N\NC(=O)Nc2ccc(Br)cc2)c2cc(O)ccc2O)cc1`, the figures for the Activity with Mus musculus [1] and in the assay with Mus musculus [2] were 39.75% and 49.71%, respectively.
For `O=C(N/N=C(\C=C\c1ccccc1)c1ccccc1O)Nc1ccc(F)cc1`, in that order: 23.16% and 28.96%.
For `O=C(N/N=C(\C=C\c1ccc(O)cc1)c1ccccc1O)Nc1ccc(F)cc1`, in that order: 70.15% and 87.74%.
On to `COc1ccc(/C=C/C(=N\NC(=O)Nc2ccc(F)cc2)c2ccccc2O)cc1`, for which the Activity in the assay with Mus musculus [1] was found to be 53.11%; in the assay with Mus musculus [2], 66.42%.
Consider `CN(C)c1ccc(/C=C/C(=N\NC(=O)Nc2ccc(F)cc2)c2ccccc2O)cc1`, for which the Activity with Mus musculus [1] worked out at 36.19%; in the assay with Mus musculus [2] it was 45.26%.
For `O=C(N/N=C(\C=C\c1ccccc1O)c1ccc(O)cc1O)Nc1ccc(F)cc1`, in that order: 74.05% and 92.62%.
For `CN(C)c1ccc(/C=C/C(=N\NC(=O)Nc2ccc(F)cc2)c2ccc(O)cc2O)cc1`, in that order: 29.62% and 37.04%.
The matching figures for `O=C(N/N=C(\C=C\c1ccccc1O)c1ccccc1O)Nc1ccc(F)cc1`: 66.81% and 83.56%.
On to `O=C(N/N=C(\C=C\c1ccccc1O)c1cc(O)ccc1O)Nc1ccc(F)cc1`, for which the Activity with Mus musculus [1] is 75.94%; with Mus musculus [2], 94.98%.
The matching figures for `O=C(N/N=C(\C=C\c1ccc(O)cc1)c1cc(O)ccc1O)Nc1ccc(F)cc1`: 79.73% and 99.72%.
With `COc1ccc(/C=C/C(=N\NC(=O)Nc2ccc(F)cc2)c2cc(O)ccc2O)cc1`, the Activity in the assay with Mus musculus [1] was determined as 45.21%; in the assay with Mus musculus [2], 56.54%.
Turning to `O=C(N/N=C(\C=C\c1ccccc1)c1ccccc1O)Nc1ccc(Br)cc1`, the Activity in the assay with Mus musculus [1] is given as 22.6%; with Mus musculus [2] it was 28.26%.
For the molecule `O=C(N/N=C(\C=C\c1ccc(O)cc1)c1ccccc1O)Nc1ccc(Br)cc1`, the Activity was found to be 67.92% with Mus musculus [1] and 84.95% in the assay with Mus musculus [2].
Take `O=C1NC(=O)C(c2ccccc2)(c2ccccc2)N1` [PHENYTOIN]: the Activity with Mus musculus [3] stood at 79.95%.
